{
  "source": "PubChem BioAssay AID1963970",
  "about": "(Molecular Pharmacology Branch, DTP, NCI, 2024)",
  "tested_on": "931267-113-T-J1-PDC multicell spheroid viability",
  "assay": "Anticancer human tumor 931267-113-T-J1-PDC patient-derived colon adenocarcinoma cell line growth inhibition [PI3K]",
  "conditions": "for IC50: curve of first compound; for viability, T/C: stronger effect = lower value",
  "method_in_brief": "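Tumor cells were combined with HUVEC and MSCs into spheroids, then dosed with PI3K-inhibitor combinations over half-log ranges capped near clinical Cmax or 10 microM.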",
  "key": {"[1]": {"conditions": "second compound 0.0316 µM, first compound 0.0316 µM"}, "[2]": {"conditions": "second compound 0.0316 µM, first compound 0.1 µM"}, "[3]": {"conditions": "second compound 0.0316 µM, first compound 0.316 µM"}, "[4]": {"conditions": "second compound 0.0316 µM, first compound 1 µM"}, "[5]": {"conditions": "second compound 0.0316 µM, first compound 3.16 µM"}, "[6]": {"conditions": "second compound 0.0316 µM, first compound 10 µM"}, "[7]": {"conditions": "second compound 0.1 µM, first compound 0.0316 µM"}, "[8]": {"conditions": "second compound 0.1 µM, first compound 0.1 µM"}, "[9]": {"conditions": "second compound 0.1 µM, first compound 0.316 µM"}, "[10]": {"conditions": "second compound 0.1 µM, first compound 1 µM"}, "[11]": {"conditions": "second compound 0.1 µM, first compound 3.16 µM"}, "[12]": {"conditions": "second compound 0.1 µM, first compound 10 µM"}, "[13]": {"conditions": "second compound 0.316 µM, first compound 0.0316 µM"}, "[14]": {"conditions": "second compound 0.316 µM, first compound 0.1 µM"}, "[15]": {"conditions": "second compound 0.316 µM, first compound 0.316 µM"}, "[16]": {"conditions": "second compound 0.316 µM, first compound 1 µM"}, "[17]": {"conditions": "second compound 0.316 µM, first compound 3.16 µM"}, "[18]": {"conditions": "second compound 0.316 µM, first compound 10 µM"}, "[19]": {"conditions": "second compound 1 µM, first compound 0.0316 µM"}, "[20]": {"conditions": "second compound 1 µM, first compound 0.1 µM"}, "[21]": {"conditions": "second compound 1 µM, first compound 0.316 µM"}, "[22]": {"conditions": "second compound 1 µM, first compound 1 µM"}, "[23]": {"conditions": "second compound 1 µM, first compound 3.16 µM"}, "[24]": {"conditions": "second compound 1 µM, first compound 10 µM"}, "[25]": {"conditions": "second compound 3.16 µM, first compound 0.0316 µM"}, "[26]": {"conditions": "second compound 3.16 µM, first compound 0.1 µM"}, "[27]": {"conditions": "second compound 3.16 µM, first compound 0.316 µM"}, "[28]": {"conditions": "second compound 3.16 µM, first compound 1 µM"}, "[29]": {"conditions": "second compound 3.16 µM, first compound 3.16 µM"}, "[30]": {"conditions": "second compound 3.16 µM, first compound 10 µM"}, "[31]": {"conditions": "second compound 10 µM, first compound 0.0316 µM"}, "[32]": {"conditions": "second compound 10 µM, first compound 0.1 µM"}, "[33]": {"conditions": "second compound 10 µM, first compound 0.316 µM"}, "[34]": {"conditions": "second compound 10 µM, first compound 1 µM"}, "[35]": {"conditions": "second compound 10 µM, first compound 3.16 µM"}, "[36]": {"conditions": "second compound 10 µM, first compound 10 µM"}},
  "data": [
    {"molecule": "C#Cc1c(F)ccc2cc(O)cc(-c3ncc4c(N5CC6CCC(C5)N6)nc(OCC56CCCN5CC(F)C6)nc4c3F)c12", "note": "(centres undefined) + Cc1nc(NC(=O)N2CCCC2C(N)=O)sc1-c1ccnc(C(C)(C)C(F)(F)F)c1;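 note: viability read 7 days after compound addition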", "values": [
      {"measurement": "IC50", "setting": "second compound 0.0316 µM", "value": 0.403, "unit": "µM"},
      {"measurement": "IC50", "setting": "second compound 0.1 µM", "value": 0.467, "unit": "µM"},
      {"measurement": "IC50", "setting": "second compound 0.316 µM", "value": 0.183, "unit": "µM"},
      {"measurement": "IC50", "setting": "second compound 1 µM", "value": 0.127, "unit": "µM"},
      {"measurement": "IC50", "setting": "second compound 3.16 µM", "value": 0.104, "unit": "µM"},
      {"measurement": "IC50", "setting": "second compound 10 µM", "value": "< 0.0316", "unit": "µM"},
      {"measurement": "viability, T/C", "setting": "[1]", "value": 80.2, "unit": "%"},
      {"measurement": "viability, T/C", "setting": "[2]", "value": 71.2, "unit": "%"},
      {"measurement": "viability, T/C", "setting": "[3]", "value": 50.4, "unit": "%"},
      {"measurement": "viability, T/C", "setting": "[4]", "value": 40, "unit": "%"},
      {"measurement": "viability, T/C", "setting": "[5]", "value": 29.8, "unit": "%"},
      {"measurement": "viability, T/C", "setting": "[6]", "value": 23.8, "unit": "%"},
      {"measurement": "viability, T/C", "setting": "[7]", "value": 84.3, "unit": "%"},
      {"measurement": "viability, T/C", "setting": "[8]", "value": 71.8, "unit": "%"},
      {"measurement": "viability, T/C", "setting": "[9]", "value": 54.1, "unit": "%"},
      {"measurement": "viability, T/C", "setting": "[10]", "value": 41.4, "unit": "%"},
      {"measurement": "viability, T/C", "setting": "[11]", "value": 25.6, "unit": "%"},
      {"measurement": "viability, T/C", "setting": "[12]", "value": 19.4, "unit": "%"},
      {"measurement": "viability, T/C", "setting": "[13]", "value": 72.6, "unit": "%"},
      {"measurement": "viability, T/C", "setting": "[14]", "value": 59.2, "unit": "%"},
      {"measurement": "viability, T/C", "setting": "[15]", "value": 41.4, "unit": "%"},
      {"measurement": "viability, T/C", "setting": "[16]", "value": 30.9, "unit": "%"},
      {"measurement": "viability, T/C", "setting": "[17]", "value": 26.3, "unit": "%"},
      {"measurement": "viability, T/C", "setting": "[18]", "value": 15.3, "unit": "%"},
      {"measurement": "viability, T/C", "setting": "[19]", "value": 67.3, "unit": "%"},
      {"measurement": "viability, T/C", "setting": "[20]", "value": 54.3, "unit": "%"},
      {"measurement": "viability, T/C", "setting": "[21]", "value": 37.2, "unit": "%"},
      {"measurement": "viability, T/C", "setting": "[22]", "value": 28.3, "unit": "%"},
      {"measurement": "viability, T/C", "setting": "[23]", "value": 21, "unit": "%"},
      {"measurement": "viability, T/C", "setting": "[24]", "value": 13.7, "unit": "%"},
      {"measurement": "viability, T/C", "setting": "[25]", "value": 67, "unit": "%"},
      {"measurement": "viability, T/C", "setting": "[26]", "value": 51.9, "unit": "%"},
      {"measurement": "viability, T/C", "setting": "[27]", "value": 29.4, "unit": "%"},
      {"measurement": "viability, T/C", "setting": "[28]", "value": 21.2, "unit": "%"},
      {"measurement": "viability, T/C", "setting": "[29]", "value": 15.8, "unit": "%"},
      {"measurement": "viability, T/C", "setting": "[30]", "value": 11.5, "unit": "%"},
      {"measurement": "viability, T/C", "setting": "[31]", "value": 49.1, "unit": "%"},
      {"measurement": "viability, T/C", "setting": "[32]", "value": 38.7, "unit": "%"},
      {"measurement": "viability, T/C", "setting": "[33]", "value": 25.2, "unit": "%"},
      {"measurement": "viability, T/C", "setting": "[34]", "value": 18.8, "unit": "%"},
      {"measurement": "viability, T/C", "setting": "[35]", "value": 16.9, "unit": "%"},
      {"measurement": "viability, T/C", "setting": "[36]", "value": 9.04, "unit": "%"}
    ]},
    {"molecule": "C=CC(=O)N1CCN(c2nc(=O)n(-c3c(C)ccnc3C(C)C)c3nc(-c4c(O)cccc4F)c(F)cc23)C(C)C1", "note": "(centres undefined) + Cc1nc(NC(=O)N2CCCC2C(N)=O)sc1-c1ccnc(C(C)(C)C(F)(F)F)c1", "values": [
      {"measurement": "IC50", "setting": "second compound 0.0316 µM", "value": "> 10", "unit": "µM"},
      {"measurement": "IC50", "setting": "second compound 0.1 µM", "value": "> 10", "unit": "µM"},
      {"measurement": "IC50", "setting": "second compound 0.316 µM", "value": "> 10", "unit": "µM"},
      {"measurement": "IC50", "setting": "second compound 1 µM", "value": "> 10", "unit": "µM"},
      {"measurement": "IC50", "setting": "second compound 3.16 µM", "value": "> 10", "unit": "µM"},
      {"measurement": "IC50", "setting": "second compound 10 µM", "value": "> 10", "unit": "µM"},
      {"measurement": "viability, T/C", "setting": "[1]", "value": 86.3, "unit": "%"},
      {"measurement": "viability, T/C", "setting": "[2]", "value": 91.1, "unit": "%"},
      {"measurement": "viability, T/C", "setting": "[3]", "value": 99.2, "unit": "%"},
      {"measurement": "viability, T/C", "setting": "[4]", "value": 104, "unit": "%"},
      {"measurement": "viability, T/C", "setting": "[5]", "value": 108, "unit": "%"},
      {"measurement": "viability, T/C", "setting": "[6]", "value": 85.5, "unit": "%"},
      {"measurement": "viability, T/C", "setting": "[7]", "value": 99.6, "unit": "%"},
      {"measurement": "viability, T/C", "setting": "[8]", "value": 78.7, "unit": "%"},
      {"measurement": "viability, T/C", "setting": "[9]", "value": 85.7, "unit": "%"},
      {"measurement": "viability, T/C", "setting": "[10]", "value": 100, "unit": "%"},
      {"measurement": "viability, T/C", "setting": "[11]", "value": 105, "unit": "%"},
      {"measurement": "viability, T/C", "setting": "[12]", "value": 82.7, "unit": "%"},
      {"measurement": "viability, T/C", "setting": "[13]", "value": 80.6, "unit": "%"},
      {"measurement": "viability, T/C", "setting": "[14]", "value": 87.2, "unit": "%"},
      {"measurement": "viability, T/C", "setting": "[15]", "value": 94.1, "unit": "%"},
      {"measurement": "viability, T/C", "setting": "[16]", "value": 91.8, "unit": "%"},
      {"measurement": "viability, T/C", "setting": "[17]", "value": 84.7, "unit": "%"},
      {"measurement": "viability, T/C", "setting": "[18]", "value": 76.9, "unit": "%"},
      {"measurement": "viability, T/C", "setting": "[19]", "value": 83.5, "unit": "%"},
      {"measurement": "viability, T/C", "setting": "[20]", "value": 76.6, "unit": "%"},
      {"measurement": "viability, T/C", "setting": "[21]", "value": 73.9, "unit": "%"},
      {"measurement": "viability, T/C", "setting": "[22]", "value": 83.7, "unit": "%"},
      {"measurement": "viability, T/C", "setting": "[23]", "value": 94.7, "unit": "%"},
      {"measurement": "viability, T/C", "setting": "[24]", "value": 65.6, "unit": "%"},
      {"measurement": "viability, T/C", "setting": "[25]", "value": 66.3, "unit": "%"},
      {"measurement": "viability, T/C", "setting": "[26]", "value": 71.3, "unit": "%"},
      {"measurement": "viability, T/C", "setting": "[27]", "value": 71.1, "unit": "%"},
      {"measurement": "viability, T/C", "setting": "[28]", "value": 72.7, "unit": "%"},
      {"measurement": "viability, T/C", "setting": "[29]", "value": 71.2, "unit": "%"},
      {"measurement": "viability, T/C", "setting": "[30]", "value": 59, "unit": "%"},
      {"measurement": "viability, T/C", "setting": "[31]", "value": 54.6, "unit": "%"},
      {"measurement": "viability, T/C", "setting": "[32]", "value": 55.2, "unit": "%"},
      {"measurement": "viability, T/C", "setting": "[33]", "value": 59.2, "unit": "%"},
      {"measurement": "viability, T/C", "setting": "[34]", "value": 62.6, "unit": "%"},
      {"measurement": "viability, T/C", "setting": "[35]", "value": 62.4, "unit": "%"},
      {"measurement": "viability, T/C", "setting": "[36]", "value": 49, "unit": "%"}
    ]}
  ]
}
